The record followed here is patent US20230416268A1, “PYRIMIDINONE-CONTAINING 17-BETA-HYDROXYSTEROID DEHYDROGENASE TYPE 13 INHIBITORS” (ENANTA PHARMACEUTICALS, INC., priority 2022, published 2023).

The target of the experiment is Recombinant human 17β-HSD13 (Homo sapiens (Human), UniProt Q7Z5P4). Kind of experiment: 17β-HSD13 rapid-fire mass spectrometry assay (RF/MS assay). The experiment is classed as biochemical. As to conditions: HSD17B13 80 nM, LTB4 10 μM, NAD+ 0.5 mM, RT 3 h, RF/MS readout. Here is the method:
17β-HSD13 rapid-fire mass spectrometry assay (RF/MS assay). Recombinant human 17β-HSD13 was expressed and purified from sf9 cells at Charles River Labs (Saffron Walden, UK). […] The assays were quenched by adding 20 μL of 0.15% aqueous formic acid and the plates were frozen at −80° C. RF/MS analysis was performed at PureHoney Technologies (Billerica, MA) on a RapidFire RF300 system (Agilent Technologies, Inc.) coupled to an API 4000 triple quadrupole mass spectrometer (Sciex) equipped with Agilent RapidFire cartridge type A (C4). The mobile phase was 0.09% formic acid and 0.01% trifluoracetic acid in water (Buffer A) and 0.09% formic acid and 0.01% trifluoracetic acid in 80% aqueous acetonitrile (Buffer B). The RapidFire method conditions were the following: 250 ms aspirate, 3000 ms load/desalt, 4000 ms elute, and 500 ms re-equilibrate. RF-MS/MS was performed in negative polarity (−4500 V), the source temperature was 650° C., and gas 1 and gas 2 settings for nitrogen were set to 50. The curtain gas and collision gas were also nitrogen and were set to 20 and 12, respectively.
Data Analysis. 17β-HSD13 enzyme activity was measured as percent conversion of extracted ion counts and normalized to high and low controls to determine percent residual activity at various concentrations of test compounds. Data were fitted to normalized activity (variable slope) versus concentration fit in GraphPad Prism 7 to determine IC50. All experiments were run in duplicates.

By IC50 is commonly meant the concentration at which inhibition is half-maximal.

Chain of Recombinant human 17β-HSD13 (Q7Z5P4 20-300): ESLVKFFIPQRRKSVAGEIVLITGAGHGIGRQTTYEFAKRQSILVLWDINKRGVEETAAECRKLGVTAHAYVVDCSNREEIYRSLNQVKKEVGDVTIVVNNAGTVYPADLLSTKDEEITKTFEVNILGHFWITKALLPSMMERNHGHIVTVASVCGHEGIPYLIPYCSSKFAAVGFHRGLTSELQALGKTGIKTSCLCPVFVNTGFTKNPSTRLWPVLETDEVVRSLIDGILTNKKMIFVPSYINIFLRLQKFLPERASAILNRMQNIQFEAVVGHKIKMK

Regarding `COc1ccc(-c2nc3sc4c(OC(C)=O)cccc4c3c(=O)n2Cc2cnco2)c(C2CC2)c1` [Example 1, 2-(2-cyclopropyl-4-methoxyphenyl)-3-(oxazol-5-ylmethyl)-4-oxo-3,4-dihydrobenzo[4,5]thieno[2,3-d]pyrimidin-8-yl acetate], the IC50 was 0.1 to 1 µM.
As for `CCC(=O)Oc1cccc2c1sc1nc(-c3ccc(OC)cc3C3CC3)n(Cc3cnco3)c(=O)c12` [Example 2, 2-(2-cyclopropyl-4-methoxyphenyl)-3-(oxazol-5-ylmethyl)-4-oxo-3,4-dihydrobenzo[4,5]thieno[2,3-d]pyrimidin-8-yl propionate], the figure is below 0.1 µM; as for `COc1ccc(-c2nc3sc4c(OC(=O)c5ccccc5)cccc4c3c(=O)n2Cc2cnco2)c(C2CC2)c1` [Example 3, 2-(2-cyclopropyl-4-methoxyphenyl)-3-(oxazol-5-ylmethyl)-4-oxo-3,4-dihydrobenzo[4,5]thieno[2,3-d]pyrimidin-8-yl benzoate], 0.1 to 1 µM; as for `O=c1c2c(nc(-c3ccc4c(c3)OCCO4)n1Cc1ccccc1)sc1c(O)cccc12` [Example 4], 0.1 to 1 µM.
As for `CC(C)(C)c1ccc(-c2nc3sc4c(O)cccc4c3c(=O)n2Cc2ccccc2)cc1` [Example 5], the figure is above 10 µM.
As for `O=c1c2c(nc(-c3ccc4c(c3)OCO4)n1Cc1ccccc1)sc1c(O)cccc12` [Example 6], the figure is above 10 µM; as for `CC(C)Oc1ccc(-c2nc3sc4c(O)cccc4c3c(=O)n2Cc2ccccc2)cc1` [Example 7], above 10 µM.
Turning to `COc1ccc(-c2nc3sc4c(O)cccc4c3c(=O)n2Cc2ccccc2)c(Br)c1` [Example 8], the IC50 fell in the range of 0.1 to 1 µM.
On to `COc1ccc(-c2nc3sc4c(O)cccc4c3c(=O)n2Cc2ccccc2)c(C2CC2)c1` [Example 9], for which the IC50 is below 0.1 µM.
Take `COc1ccc(-c2nc3sc4c(O)cccc4c3c(=O)n2Cc2ccncc2)c(C2CC2)c1` [Example 10]: the IC50 is below 0.1 µM.
As for `COc1ccc(-c2nc3sc4c(O)cccc4c3c(=O)n2Cc2ccnc(C)c2)c(C2CC2)c1` [Example 12], the figure is below 0.1 µM; as for `COc1ccc(-c2nc3sc4c(O)cccc4c3c(=O)n2Cc2ccnc(Cl)c2)c(C2CC2)c1` [Example 13], below 0.1 µM; as for `COc1ccc(-c2nc3sc4c(O)cccc4c3c(=O)n2Cc2cn[nH]c2)c(C2CC2)c1` [Example 14], below 0.1 µM.
As for `COc1ccc(-c2nc3sc4c(O)cccc4c3c(=O)n2Cc2cncs2)c(C2CC2)c1` [Example 15], the figure is below 0.1 µM; as for `COc1ccc(-c2nc3sc4c(O)cccc4c3c(=O)n2Cc2nnn(C)n2)c(C2CC2)c1` [Example 16], below 0.1 µM; as for `COc1ccc(-c2nc3sc4c(O)cccc4c3c(=O)n2CCN2CCOCC2)c(C2CC2)c1` [Example 17], below 0.1 µM.
Then `COc1ccc(-c2nc3sc4c(O)cccc4c3c(=O)n2CCN2CCN(C)CC2)c(C2CC2)c1` [Example 18], with below 0.1 µM; and `COc1ccc(-c2nc3sc4c(O)cccc4c3c(=O)n2CCN2CCNCC2)c(C2CC2)c1` [Example 19], with below 0.1 µM; and `COc1ccc(-c2nc3sc4c(O)cccc4c3c(=O)n2CCN2CCCCC2)c(C2CC2)c1` [Example 20], with below 0.1 µM.
With `COc1ccc(-c2nc3sc4c(O)cccc4c3c(=O)n2CCNCc2ccncc2)c(C2CC2)c1` [Example 21], the IC50 is below 0.1 µM.
As for `COc1ccc(-c2nc3sc4c(O)cccc4c3c(=O)n2CCNCc2ccccn2)c(C2CC2)c1` [Example 22], the figure is below 0.1 µM; as for `COc1ccc(-c2nc3sc4c(O)cccc4c3c(=O)n2CCNCc2cccnc2)c(C2CC2)c1` [Example 23], below 0.1 µM; as for `COc1ccc(-c2nc3sc4c(O)cccc4c3c(=O)n2CCN2CCC(O)CC2)c(C2CC2)c1` [Example 24], below 0.1 µM.
Then `COc1ccc(-c2nc3sc4c(O)cccc4c3c(=O)n2CCN(C)C)c(C2CC2)c1` [Example 25], with below 0.1 µM; and `COc1ccc(-c2nc3sc4c(O)cccc4c3c(=O)n2CCN(C)Cc2ccncc2)c(C2CC2)c1` [Example 26], with below 0.1 µM; and `COc1ccc(-c2nc3sc4c(O)cccc4c3c(=O)n2CCN(C)Cc2cccnc2)c(C2CC2)c1` [Example 27], with below 0.1 µM.
As for `COc1ccc(-c2nc3sc4c(O)cccc4c3c(=O)n2CCNCc2cnccn2)c(C2CC2)c1` [Example 28], the figure is below 0.1 µM.
For the molecule `COc1ccc(-c2nc3sc4c(O)cccc4c3c(=O)n2CCNCc2cnc(OC)nc2)c(C2CC2)c1` [Example 29], the IC50 was below 0.1 µM.
As for `COc1ccc(-c2nc3sc4c(O)cccc4c3c(=O)n2CCNCc2cn[nH]c2)c(C2CC2)c1` [Example 30], the figure is below 0.1 µM.
Then `COc1ccc(-c2nc3sc4c(O)cccc4c3c(=O)n2CCNCc2cncs2)c(C2CC2)c1` [Example 32], with below 0.1 µM; and `COc1ccc(-c2nc3sc4c(OC(=O)[C@H](C)N)cccc4c3c(=O)n2Cc2cncs2)c(C2CC2)c1` [Example 33], with below 0.1 µM; and `COc1ccc(-c2nc3sc4c(O)cccc4c3c(=O)n2CCNCc2nnn[nH]2)c(C2CC2)c1` [Example 34], with below 0.1 µM.
On to `COc1ccc(-c2nc3sc4c(O)cccc4c3c(=O)n2CCOC(=O)N2CCOCC2)c(C2CC2)c1` [Example 35], for which the half-maximal inhibitory concentration (IC50) is below 0.1 µM.
Then `COc1ccc(-c2nc3sc4c(O)cccc4c3c(=O)n2C/C=C/COC(=O)N(C)C)c(C2CC2)c1` [Example 36], with below 0.1 µM; and `COc1ccc(-c2nc3sc4c(O)cccc4c3c(=O)n2C/C=C/COc2ccncc2)c(C2CC2)c1` [Example 37], with below 0.1 µM; and `COc1ccc(-c2nc3sc4c(O)cccc4c3c(=O)n2CCNC(=O)c2ccncc2)c(C2CC2)c1` [Example 38], with 0.1 to 1 µM.
As for `COc1ccc(-c2nc3sc4c(O)cccc4c3c(=O)n2CCNCc2nnnn2C)c(C2CC2)c1` [Example 40], the figure is below 0.1 µM; as for `COc1ccc(-c2nc3sc4c(O)cccc4c3c(=O)n2CCNCc2nnn(C)n2)c(C2CC2)c1` [Example 41], below 0.1 µM; as for `COc1ccc(-c2nc3sc4c(O)cccc4c3c(=O)n2C/C=C/C(=O)N(C)C)c(C2CC2)c1` [Example 42], below 0.1 µM.
Then `COc1ccc(-c2nc3sc4c(O)cccc4c3c(=O)n2C/C=C/CO)c(C2CC2)c1` [Example 43], with below 0.1 µM.
Regarding `COc1ccc(-c2nc3sc4c(O)cccc4c3c(=O)n2CCN)c(C2CC2)c1` [Example 44], the IC50 was in the range of 0.1 to 1 µM.
Take `COC(=O)NCCn1c(-c2ccc(OC)cc2C2CC2)nc2sc3c(O)cccc3c2c1=O` [Example 45]: the IC50 lay within 0.1 to 1 µM.
As for `O=c1c2c(nc(-c3ccc(F)cc3C3CC3)n1Cc1cncs1)sc1c(O)cccc12` [Example 46], the figure is below 0.1 µM.
Turning to `O=c1c2c(nc(-c3ccccc3C3CC3)n1Cc1cncs1)sc1c(O)cccc12` [Example 47], the IC50 is below 0.1 µM.
Then `CC(C)Oc1ccccc1-c1nc2sc3c(O)cccc3c2c(=O)n1Cc1cncs1` [Example 49], with below 0.1 µM; and `COc1ccc(-c2nc3sc4c(O)cccc4c3c(=O)n2CCNS(=O)(=O)c2ccc(F)cc2)c(C2CC2)c1` [Example 50], with 0.1 to 1 µM; and `CCOC(=O)C1CC1Cn1c(-c2ccc(OC)cc2C2CC2)nc2sc3c(O)cccc3c2c1=O` (stereo not shown) [Example 51], with below 0.1 µM.
Then `COc1ccc(-c2nc3sc4c(O)cccc4c3c(=O)n2C/C=C/CSc2ccccc2)c(C2CC2)c1` [Example 52], with 0.1 to 1 µM; and `COc1ccc(-c2nc3sc4c(O)cccc4c3c(=O)n2C)c(C2CC2)c1` [Example 53], with below 0.1 µM; and `COc1ccc(-c2nc3sc4c(O)cccc4c3c(=O)n2C2CC2)c(C2CC2)c1` [Example 54], with 0.1 to 1 µM.
As for `COc1ccc(-c2nc3sc4c(O)cccc4c3c(=O)n2C/C=C/CN(C)C)c(C2CC2)c1` [Example 55], the figure is above 10 µM.
In the case of `CCn1c(-c2ccc(OC)cc2C2CC2)nc2sc3c(O)cccc3c2c1=O` [Example 56], the half-inhibitory concentration (IC50) is below 0.1 µM.
Then `CCCn1c(-c2ccc(OC)cc2C2CC2)nc2sc3c(O)cccc3c2c1=O` [Example 57], with 0.1 to 1 µM; and `COc1ccc(-c2nc3sc4c(O)cccc4c3c(=O)n2CC(F)(F)F)c(C2CC2)c1` [Example 58], with 0.1 to 1 µM; and `COc1ccc(-c2nc3sc4c(O)cccc4c3c(=O)n2CC2CC2)c(C2CC2)c1` [Example 59], with 0.1 to 1 µM.
Turning to `COc1ccc(-c2nc3sc4c(O)cccc4c3c(=O)n2Cc2cnc(C)s2)c(C2CC2)c1` [Example 60], the IC50 is below 0.1 µM.
Then `CCc1ncc(Cn2c(-c3ccc(OC)cc3C3CC3)nc3sc4c(O)cccc4c3c2=O)s1` [Example 61], with 0.1 to 1 µM; and `COc1ccc(-c2nc3sc4c(O)cccc4c3c(=O)n2Cc2csc(C)n2)c(C2CC2)c1` [Example 62], with below 0.1 µM; and `COc1ccc(-c2nc3sc4c(O)cccc4c3c(=O)n2Cc2ccno2)c(C2CC2)c1` [Example 63], with below 0.1 µM.
As for `COc1ccc(-c2nc3sc4c(O)cccc4c3c(=O)n2Cc2cnco2)c(C2CC2)c1` [Example 64], the figure is below 0.1 µM; as for `C=CCn1c(-c2ccc(OC)cc2C2CC2)nc2sc3c(O)cccc3c2c1=O` [Example 65], below 0.1 µM.
